According to PMC12508063, “Chloroindazole based estrogen receptor β ligands with favorable pharmacokinetics promote functional remyelination and visual recovery” (Scientific Reports, 2025):
Read-outs that look alike come from different tables or passages of the source.

Columns and labels:
CYP2C9 [1] = target: T1, CYP2C9 (Homo sapiens, UniProt P11712); experiment: CYP inhibition; details: test compounds at 10 μM; substrate Diclofenac Sodium
[2] = Hepatocyte stability (human)
EAE mice = experiment: EAE clinical disease score; type: in vivo, C57BL/6J mouse; details: 5 mg/kg/day SC from peak disease
Protocol: EAE induction and treatment: EAE was induced in 8–10-week-old wild-type C57BL/6J mice using MOG₃₅-₅₅ peptide[11],[14],[23]–[25]. Mice were scored daily using a standard clinical scale (0–5) and tested for their ability to stay on a rotarod. […] At peak disease (18–22 days post-immunization), animals were grouped into EAE+Vehicle, EAE+K102, and EAE+K110.
Fig. 3 Experimental design for treatment effects in EAE. (A) Experimental plan. […] Following emulsion injection, mice were injected with pertussis (PTX). Mice were scored for their clinical EAE score daily. EAE mice (red) show signs of disease starting at days 8–17. At peak disease between the days […], therapeutic treatment started and continued daily until the end of the experiment (D35-45). […] N = 6–8 mice/group. Two-Way unbalanced ANOVA with Dunnett’s multiple comparisons test was performed. […]
EAE induction and treatment: Eight to ten-week-old wild-type C57BL/6J mice were induced with active EAE using MOG35-55 peptide as previously described (1-5). […] Animals were scored daily for clinical EAE scores as follows: 0, unaffected; 1, complete tail limpness; 2, failure to right upon attempt to roll over; 3, partial hind limb paralysis; 4, complete hind limb paralysis; […]. At peak disease 18-22 dpi, mice were scored and separated into 3 groups: EAE+V, EAE+SHK-K102, and EAE+K110. […]

[3] = Oral PK of K102 at 40 mg/kg in female mice; type: in vivo, C57BL/6 mouse; details: female mouse, PO 40 mg/kg, mean
[4] = Liver microsome stability (human)
CYP2D6 = CYP2D6 (Homo sapiens, UniProt P10635); experiment: CYP inhibition; details: test compounds at 10 μM; substrate Dextromethorphan
Sequence of CYP2D6 (P10635 whole entry): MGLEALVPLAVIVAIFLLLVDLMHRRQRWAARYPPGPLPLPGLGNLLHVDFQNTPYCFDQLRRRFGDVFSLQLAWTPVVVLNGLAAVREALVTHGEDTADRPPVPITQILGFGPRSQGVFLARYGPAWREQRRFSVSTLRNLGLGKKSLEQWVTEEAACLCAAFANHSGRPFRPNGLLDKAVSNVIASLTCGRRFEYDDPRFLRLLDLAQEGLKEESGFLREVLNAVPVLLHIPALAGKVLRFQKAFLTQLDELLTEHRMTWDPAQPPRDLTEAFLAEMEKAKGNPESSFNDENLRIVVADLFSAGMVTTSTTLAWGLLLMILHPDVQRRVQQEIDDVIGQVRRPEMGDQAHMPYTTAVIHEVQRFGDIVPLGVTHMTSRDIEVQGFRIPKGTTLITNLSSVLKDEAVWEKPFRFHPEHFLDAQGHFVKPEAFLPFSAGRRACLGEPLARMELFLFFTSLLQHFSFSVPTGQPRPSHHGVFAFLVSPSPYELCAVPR

CYP1A2 = CYP1A2 (Homo sapiens, UniProt P05177); experiment: CYP inhibition; details: test compounds at 10 μM; substrate Phenacetin
Sequence of CYP1A2 (P05177 whole entry): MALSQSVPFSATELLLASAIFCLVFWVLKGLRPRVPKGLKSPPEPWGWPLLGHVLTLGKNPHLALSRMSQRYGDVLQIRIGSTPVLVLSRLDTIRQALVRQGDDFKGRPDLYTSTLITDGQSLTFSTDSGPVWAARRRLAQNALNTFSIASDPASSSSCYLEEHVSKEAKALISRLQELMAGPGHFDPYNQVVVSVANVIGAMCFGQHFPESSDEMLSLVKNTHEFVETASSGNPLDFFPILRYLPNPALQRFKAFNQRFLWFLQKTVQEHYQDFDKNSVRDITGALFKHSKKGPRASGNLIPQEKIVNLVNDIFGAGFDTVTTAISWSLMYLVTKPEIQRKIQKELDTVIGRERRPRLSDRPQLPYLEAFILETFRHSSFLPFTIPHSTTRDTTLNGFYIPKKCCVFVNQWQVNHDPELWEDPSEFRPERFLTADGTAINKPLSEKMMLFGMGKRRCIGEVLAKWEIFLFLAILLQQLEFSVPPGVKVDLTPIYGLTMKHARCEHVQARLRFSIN

CYP2C19 = CYP2C19 (Homo sapiens, UniProt P33261); experiment: CYP inhibition; details: test compounds at 10 μM; substrate Mephenytoin
Sequence of CYP2C19 (P33261 whole entry): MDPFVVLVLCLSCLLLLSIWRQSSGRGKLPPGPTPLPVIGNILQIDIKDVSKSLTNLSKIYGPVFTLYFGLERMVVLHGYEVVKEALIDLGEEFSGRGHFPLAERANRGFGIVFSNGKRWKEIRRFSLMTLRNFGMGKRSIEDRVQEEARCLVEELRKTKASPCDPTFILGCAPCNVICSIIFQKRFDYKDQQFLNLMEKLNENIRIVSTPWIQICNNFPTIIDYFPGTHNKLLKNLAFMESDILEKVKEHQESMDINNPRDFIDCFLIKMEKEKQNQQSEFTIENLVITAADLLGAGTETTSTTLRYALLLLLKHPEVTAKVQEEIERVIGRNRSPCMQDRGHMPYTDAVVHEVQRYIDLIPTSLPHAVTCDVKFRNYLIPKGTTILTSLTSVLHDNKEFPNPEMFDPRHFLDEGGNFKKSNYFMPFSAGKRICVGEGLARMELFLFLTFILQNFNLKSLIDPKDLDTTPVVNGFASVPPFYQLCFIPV

[5] = Hepatocyte stability (mouse)
[6] = Oral PK of K102 at 40 mg/kg in female monkeys; type: in vivo, cynomolgus monkey; details: female monkey, PO 40 mg/kg, mean
[7] = plasma
[8] = microsomes
CYP2C9 [9] = target: T1, CYP2C9; details: 10 µM
[10] = tested on: 1A2, 2B6, 2C9, 2C19, 2D6, and 3A4M/T; experiment: CYP inhibition panel summary; type: in vitro ADME, human; details: 10 µM
[11] = hepatocytes

T1 sequence (P11712 whole entry): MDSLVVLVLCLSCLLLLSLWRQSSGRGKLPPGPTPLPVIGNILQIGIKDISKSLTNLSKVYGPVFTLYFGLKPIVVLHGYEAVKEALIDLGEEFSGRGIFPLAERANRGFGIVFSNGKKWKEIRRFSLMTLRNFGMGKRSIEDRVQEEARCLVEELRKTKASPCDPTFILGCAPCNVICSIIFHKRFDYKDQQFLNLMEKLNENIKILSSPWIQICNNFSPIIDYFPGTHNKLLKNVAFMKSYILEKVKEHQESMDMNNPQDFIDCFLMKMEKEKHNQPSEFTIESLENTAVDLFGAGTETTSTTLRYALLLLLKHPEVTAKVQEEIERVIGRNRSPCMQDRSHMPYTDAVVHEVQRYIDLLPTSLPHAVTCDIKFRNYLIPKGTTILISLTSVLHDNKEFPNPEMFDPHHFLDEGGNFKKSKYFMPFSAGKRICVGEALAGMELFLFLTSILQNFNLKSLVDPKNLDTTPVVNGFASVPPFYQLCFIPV

Cc1cc(O)ccc1-n1nc2ccc(O)cc2c1Cl [Compound K102, IndCl-o-Me]
CYP Inhibition Percentage CYP2C9 (CYP2C9 [1]): 36.09%
Hepatocyte Stability (Human) % Remaining (15 min) ([2]; 15 min): 60.05%
Hepatocyte Stability (Human) CLint ([2]; human, hepatocytes): 72.12 µL/min/mg protein
EAE clinical disease (EAE mice): superior attenuation
AUCExtr [3]: 13.0%
AUCInf [3]: 0.855 µg·h/mL
AUCInf/D [3]: 21.4 kg·ng·h/mL/mg
AUClast [3]: 0.748 µg·h/mL
Cmax [3]: 0.945 µg/mL
MRTInf [3]: 248 min
Tmax [3]: 15 min
t1/2 [3]: 256 min
Liver Microsome Stability (Human) % Remaining (30 min) ([4]; 30 min): 78.03%
Liver Microsome Stability (Human) CLint ([4]; human, microsomes): 8.47 µL/min/mg protein
CYP Inhibition Percentage CYP2D6 (CYP2D6): 18.26%
CYP Inhibition Percentage CYP1A2 (CYP1A2): 26.19%
CYP Inhibition Percentage CYP2C19 (CYP2C19): 50.50%
Hepatocyte Stability (Mouse) CLint [5]: 86.57 µL/min/mg protein
Hepatocyte Stability (Mouse) t1/2 ([5]; mouse, hepatocytes): 16.01 min
AUCInf/D [6]: 59.3 kg·ng·h/mL/mg
AUClast [6]: 2.373 µg·h/mL
Cmax [6]: 0.3553 µg/mL
Tmax [6]: 79.8 min

Oc1ccc(-n2nc3ccc(O)cc3c2Cl)c(O)c1 [Compound K110, IndCl-o-OH]
Protein Binding (% Bound) Human [7]: 93.27%
Liver Microsome Stability (Mouse) CLint [8]: 35.28 µL/min/mg protein
Liver Microsome Stability (Mouse) t1/2 [8]: 20.06 min
Liver Microsome Stability (Mouse) % Remaining (30 min) ([8]; 0.5 h): 35.72%
CYP Inhibition Percentage CYP2C9 (CYP2C9 [9]): 18.49%
CYP inhibition, all other isoforms of the panel [10]: < 50%
Hepatocyte Stability (Human) CLint [11]: 12.69 µL/min/mg protein
Hepatocyte Stability (Human) % Remaining (15 min) ([11]; 0.25 h): 87.14%
